What was measured:
[1] = test system: Trypanosoma brucei rhodesiense; experiment: Antiprotozoal activity against Trypanosoma brucei rhodesiense STIB900; assay type: functional, organism-based
[2] = Selectivity index, IC50 for L6 cells/ IC50 for Trypanosoma brucei rhodesience; assay type: functional
Plasmodium falciparum = experiment: Antiprotozoal activity against chloroquine-, pyrimethamine-resistant Plasmodium falciparum K1; assay type: functional, organism-based
L6 = experiment: Cytotoxicity against L6 cells; assay type: cell-based; conditions: Rattus norvegicus
[3] = Selectivity index, IC50 for L6 cells/IC50 for Plasmodium falciparum K1; assay type: functional
[4] = test system: Trypanosoma brucei brucei; experiment: Survival of NMRI mouse infected with Trypanosoma brucei brucei at 0.5 mg/kg, ip; assay type: functional; conditions: route intraperitoneal
[5] = test system: Trypanosoma brucei brucei; experiment: Survival of NMRI mouse infected with Trypanosoma brucei brucei at 50 mg/kg, ip; assay type: functional; conditions: route intraperitoneal

For `O=C1CC2(N3CCCCC3)CC(c3ccccc3)C1C(c1ccccc1)C2` (centres undefined), the IC50 [1] was 8.12 µM, the “Ratio IC50” value [2] was 5.78 and the IC50 (Plasmodium falciparum) was 3.95 µM. For the same compound, the IC50 (L6) was 46.9 µM and the “Ratio IC50” value [3] was 11.88.
For `COc1ccc(C2CC3(N(C)C)CC(=O)C2C(c2ccc(OC)cc2)C3)cc1` (centres undefined), the IC50 [1] was 5.01 µM, the “Ratio IC50” value [2] was 10.47 and the IC50 (Plasmodium falciparum) was 5.43 µM. The IC50 (L6) was 52.4 µM and the “Ratio IC50” value [3] was 9.66.
In the case of `COc1ccc(C2CC3(N4CCCCC4)CC(O)C2C(c2ccc(OC)cc2)C3)cc1` (centres undefined), the IC50 [1] is reported as 14.2 µM, the “Ratio IC50” value [2] is reported as 3.13 and the IC50 (Plasmodium falciparum) is reported as 4.98 µM. The IC50 (L6) was 44.6 µM and the “Ratio IC50” value [3] was 8.95.
With `COc1ccc(C2CC3(N4CCCC4)CC(O)C2C(c2ccc(OC)cc2)C3)cc1` (centres undefined) the IC50 [1] was 7.61 µM, the “Ratio IC50” value [2] was 2.35 and the IC50 (Plasmodium falciparum) was 2.72 µM. The IC50 (L6) was 17.9 µM and the “Ratio IC50” value [3] was 6.58.
In the case of `c1ccc(C2CC3(N4CCCC4)CCNC2C(c2ccccc2)C3)cc1` (centres undefined), the “Ratio IC50” value [2] is reported as 103.8 and the “Ratio IC50” value [3] is reported as 215.
In the case of `OC1CC2(N3CCCCC3)CC(c3ccc(Cl)cc3)C1C(c1ccc(Cl)cc1)C2` (centres undefined), the IC50 [1] is reported as 0.44 µM, the “Ratio IC50” value [2] is reported as 26.34 and the IC50 (Plasmodium falciparum) is reported as 0.37 µM. For the same compound, the IC50 (L6) was 11.6 µM and the “Ratio IC50” value [3] was 31.32.
With `CN(C)C12CC(=O)C(C(c3ccccc3)C1)C(c1ccccc1)C2` (centres undefined) the IC50 [1] was 9.99 µM, the “Ratio IC50” value [2] was 2.46 and the IC50 (Plasmodium falciparum) was greater than 10.6 µM. The IC50 (L6) was 24.6 µM and the “Ratio IC50” value [3] was 2.32.
With `COc1ccc(C2CC3(N(C)C)CC(O)C2C(c2ccc(OC)cc2)C3)cc1` (centres undefined) the IC50 [1] was 2.15 µM, the “Ratio IC50” value [2] was 29.5 and the IC50 (Plasmodium falciparum) was 5.5 µM. For the same compound, the IC50 (L6) was 63.4 µM and the “Ratio IC50” value [3] was 11.53.
In the case of `O/N=C1/CC2(N3CCCC3)CC(c3ccc(Cl)cc3)C1C(c1ccc(Cl)cc1)C2` (centres undefined), the IC50 [1] is reported as 1.51 µM, the “Ratio IC50” value [2] is reported as 3.85 and the IC50 (Plasmodium falciparum) is reported as 0.19 µM. The IC50 (L6) was 5.81 µM and the “Ratio IC50” value [3] was 27.26.
With `CN(C)C12CC(O)C(C(c3ccccc3)C1)C(c1ccccc1)C2` (centres undefined) the IC50 [1] was 2.95 µM, the “Ratio IC50” value [2] was 44.91 and the IC50 (Plasmodium falciparum) was greater than 15.6 µM. For the same compound, the IC50 (L6) was 132 µM and the “Ratio IC50” value [3] was 8.52.
In the case of `OC1CC2(N3CCCCC3)CC(c3ccccc3)C1C(c1ccccc1)C2` (centres undefined), the IC50 [1] is reported as 5.34 µM, the “Ratio IC50” value [2] is reported as 6.99 and the IC50 (Plasmodium falciparum) is reported as 0.84 µM. For the same compound, the IC50 (L6) was 37.3 µM and the “Ratio IC50” value [3] was 44.45.
In the case of `Nc1nc(N)nc(Nc2ccc([As]3SCC(CO)S3)cc2)n1` (centres undefined) [MELARSOPROL], the “Ratio IC50” value [2] is reported as 1995 and the Mean survival days [4] is reported as 42.5 days.
In the case of `CN(C)C12CC(=O)NC(C(c3ccccc3)C1)C(c1ccccc1)C2` (centres undefined), the IC50 [1] is reported as 38 µM, the “Ratio IC50” value [2] is reported as 7.09 and the IC50 (Plasmodium falciparum) is reported as 1.4 µM. The IC50 (L6) was greater than 269 µM and the “Ratio IC50” value [3] was 192.2.
For `C[C@@H]1CC[C@H]2[C@@H](C)C(=O)O[C@@H]3O[C@@]4(C)CC[C@@H]1[C@]32OO4` [ARTEMISININ], the IC50 (Plasmodium falciparum) was 0.0064 µM and the “Ratio IC50” value [3] was 70390.
With `OC1CC2(N3CCCC3)CC(c3ccccc3)C1C(c1ccccc1)C2` (centres undefined) the IC50 [1] was 4.26 µM, the “Ratio IC50” value [2] was 6.28 and the IC50 (Plasmodium falciparum) was 2.39 µM. For the same compound, the IC50 (L6) was 26.8 µM and the “Ratio IC50” value [3] was 11.2.
For `Clc1ccc(C2CC3(N4CCCC4)CCNC2C(c2ccc(Cl)cc2)C3)cc1` (centres undefined), the IC50 [1] was 0.066 µM, the “Ratio IC50” value [2] was 152.4 and the IC50 (Plasmodium falciparum) was 0.25 µM. The Mean survival days [5] was 5.75 days, the IC50 (L6) was 10.1 µM and the “Ratio IC50” value [3] was 40.24.
With `COc1ccc(C2CC3(N4CCCC4)CC(=O)C2C(c2ccc(OC)cc2)C3)cc1` (centres undefined) the IC50 [1] was 3.7 µM, the “Ratio IC50” value [2] was 11.34 and the IC50 (Plasmodium falciparum) was 3.37 µM. For the same compound, the IC50 (L6) was 41.9 µM and the “Ratio IC50” value [3] was 12.44.
With `O=C1CC2(N3CCCC3)CC(c3ccccc3)C1C(c1ccccc1)C2` (centres undefined) the IC50 [1] was 8.03 µM, the “Ratio IC50” value [2] was 3.29 and the IC50 (Plasmodium falciparum) was 1.19 µM. The IC50 (L6) was 26.4 µM and the “Ratio IC50” value [3] was 22.22.
In the case of `O/N=C1\CC2(N3CCCC3)CC(c3ccc(Cl)cc3)C1C(c1ccc(Cl)cc1)C2` (centres undefined), the IC50 [1] is reported as 1.69 µM, the “Ratio IC50” value [2] is reported as 7.49 and the IC50 (Plasmodium falciparum) is reported as 0.51 µM. For the same compound, the IC50 (L6) was 12.7 µM and the “Ratio IC50” value [3] was 24.82.
With `CN(C)C12C/C(=N\O)C(C(c3ccc(Cl)cc3)C1)C(c1ccc(Cl)cc1)C2` (centres undefined) the IC50 [1] was 1.5 µM, the “Ratio IC50” value [2] was 5.21 and the IC50 (Plasmodium falciparum) was 1 µM. For the same compound, the IC50 (L6) was 7.82 µM and the “Ratio IC50” value [3] was 7.82.
In the case of `O/N=C1\CC2(N3CCCC3)CC(c3ccccc3)C1C(c1ccccc1)C2` (centres undefined), the IC50 [1] is reported as 1.84 µM, the “Ratio IC50” value [2] is reported as 7.31 and the IC50 (Plasmodium falciparum) is reported as 0.08 µM. The IC50 (L6) was 13.5 µM and the “Ratio IC50” value [3] was 168.1.
In the case of `O/N=C1\CC2(N3CCCCC3)CC(c3ccc(Cl)cc3)C1C(c1ccc(Cl)cc1)C2` (centres undefined), the IC50 [1] is reported as 3.34 µM, the “Ratio IC50” value [2] is reported as 2.62 and the IC50 (Plasmodium falciparum) is reported as 0.5 µM. The IC50 (L6) was 8.75 µM and the “Ratio IC50” value [3] was 17.5.
`COc1ccc(C2CC3(N4CCCCC4)CC(=O)C2C(c2ccc(OC)cc2)C3)cc1` (centres undefined) showed an IC50 [1] of 10 µM and an IC50 (Plasmodium falciparum) of 4.36 µM.
In the case of `OC1CC2(N3CCCC3)CC(c3ccc(Cl)cc3)C1C(c1ccc(Cl)cc1)C2` (centres undefined), the IC50 [1] is reported as 0.37 µM, the “Ratio IC50” value [2] is reported as 9.7 and the IC50 (Plasmodium falciparum) is reported as 0.53 µM. The IC50 (L6) was 3.59 µM and the “Ratio IC50” value [3] was 6.77.
In the case of `O/N=C1\CC2(N3CCCCC3)CC(c3ccccc3)C1C(c1ccccc1)C2` (centres undefined), the IC50 [1] is reported as 3.66 µM, the “Ratio IC50” value [2] is reported as 6.6 and the IC50 (Plasmodium falciparum) is reported as 0.15 µM. For the same compound, the IC50 (L6) was 24.2 µM and the “Ratio IC50” value [3] was 161.1.
For `O=C1CC2(N3CCCC3)CC(c3ccccc3)C(N1)C(c1ccccc1)C2` (centres undefined), the IC50 [1] was 37.9 µM, the “Ratio IC50” value [2] was 6.58 and the IC50 (Plasmodium falciparum) was 8.76 µM. The IC50 (L6) was greater than 250 µM and the “Ratio IC50” value [3] was 28.43.
With `CN(C)C12C/C(=N\O)C(C(c3ccccc3)C1)C(c1ccccc1)C2` (centres undefined) the IC50 [1] was 7.67 µM, the “Ratio IC50” value [2] was 19.61 and the IC50 (Plasmodium falciparum) was 1.26 µM. For the same compound, the IC50 (L6) was 150 µM and the “Ratio IC50” value [3] was 119.4.
For `O=C1CC2(N3CCCCC3)CC(c3ccccc3)C(N1)C(c1ccccc1)C2` (centres undefined), the IC50 [1] was 36.6 µM, the “Ratio IC50” value [2] was 6.38 and the IC50 (Plasmodium falciparum) was 13 µM. The IC50 (L6) was 234 µM and the “Ratio IC50” value [3] was 17.97.
In the case of `CN(C)C12CCNC(C(c3ccc(Cl)cc3)C1)C(c1ccc(Cl)cc1)C2` (centres undefined), the IC50 [1] is reported as 0.061 µM, the “Ratio IC50” value [2] is reported as 143.3 and the IC50 (Plasmodium falciparum) is reported as 0.41 µM. For the same compound, the Mean survival days [5] was 9 days, the IC50 (L6) was 8.74 µM and the “Ratio IC50” value [3] was 21.32.
`OC(c1cc(C(F)(F)F)nc2c(C(F)(F)F)cccc12)C1CCCCN1` (centres undefined) [MEFLOQUINE] showed an IC50 (L6) of 11.4 µM.
With `Clc1ccc(C2CC3(N4CCCCC4)CCNC2C(c2ccc(Cl)cc2)C3)cc1` (centres undefined) the IC50 [1] was 0.065 µM, the “Ratio IC50” value [2] was 124.6 and the IC50 (Plasmodium falciparum) was 0.46 µM. For the same compound, the Mean survival days [5] was 10.25 days, the IC50 (L6) was 8.1 µM and the “Ratio IC50” value [3] was 17.61.
With `CN(C)C12CC(O)C(C(c3ccc(Cl)cc3)C1)C(c1ccc(Cl)cc1)C2` (centres undefined) the IC50 [1] was 0.32 µM, the “Ratio IC50” value [2] was 27.41 and the IC50 (Plasmodium falciparum) was 0.98 µM. The IC50 (L6) was 8.77 µM and the “Ratio IC50” value [3] was 8.95.
With `CN(C)C12CCNC(C(c3ccccc3)C1)C(c1ccccc1)C2` (centres undefined) the “Ratio IC50” value [2] was 181.3 and the “Ratio IC50” value [3] was 388.6.
In the case of `c1ccc(C2CC3(N4CCCCC4)CCNC2C(c2ccccc2)C3)cc1` (centres undefined), the “Ratio IC50” value [2] is reported as 13.66 and the “Ratio IC50” value [3] is reported as 140.22.
In the case of `Cc1ccc(C(=O)Nc2ccc(S(=O)(=O)O)c3cc(S(=O)(=O)O)cc(S(=O)(=O)O)c23)cc1NC(=O)c1cccc(NC(=O)Nc2cccc(C(=O)Nc3cc(C(=O)Nc4ccc(S(=O)(=O)O)c5cc(S(=O)(=O)O)cc(S(=O)(=O)O)c45)ccc3C)c2)c1` [SURAMIN], the IC50 [1] is reported as 0.0075 µM, the “Ratio IC50” value [2] is reported as 629933 and the IC50 (L6) is reported as 4720 µM.
